Assays:
[1] = test system: Plasmodium falciparum; assay: In vitro inhibitory activity for Plasmodium falciparum; format: functional, organism-based
[2] = test system: Mus musculus; assay: Number of mice (out of 4) cured from Trypanosoma brucei rhodesiense infection which are parasite free for 60 days was determined at i.p. dose of 10 mg/kg; format: functional; conditions: route intraperitoneal
[3] = test system: Nucleic Acid; assay: In vitro binding affinity towards Poly (dA-dT)2; format: nucleic-acid assay
[4] = test system: Mus musculus; assay: In vivo average survival days of mice infected by Trypanosoma brucei rhodesiense was determined for a period of 60 days at i.p. dose of 10 mg/kg; format: functional; conditions: route intraperitoneal
[5] = test system: Trypanosoma brucei rhodesiense; assay: In vitro inhibitory activity against Trypanosoma brucei rhodesiense; format: functional, organism-based
[6] = test system: Mus musculus; assay: In vivo average survival days of mice infected by Trypanosoma brucei rhodesiense was determined for a period of 60 days at i.p. dose of 20 mg/kg; format: functional; conditions: route intraperitoneal
[7] = test system: Mus musculus; assay: Number of mice (out of 4) cured from Trypanosoma brucei rhodesiense infection which are parasite free for 60 days was determined at i.p. dose of 20 mg/kg; format: functional; conditions: route intraperitoneal
[8] = test system: Mus musculus; assay: In vivo average survival days of mice infected by Trypanosoma brucei rhodesiense was determined for a period of 60 days at i.p. dose of 5 mg/kg; format: functional; conditions: route intraperitoneal
[9] = test system: Mus musculus; assay: Number of mice (out of 4) cured from Trypanosoma brucei rhodesiense infection which are parasite free for 60 days was determined at i.p. dose of 5 mg/kg; format: functional; conditions: route intraperitoneal
[10] = test system: Mus musculus; assay: In vivo average survival days of mice infected by Trypanosoma brucei rhodesiense was determined for a period of 60 days at p.o. dose of 75 mg/kg; format: functional; conditions: route oral
[11] = test system: Mus musculus; assay: Number of mice (out of 4) cured from Trypanosoma brucei rhodesiense infection which are parasite free for 60 days was determined at p.o. dose of 75 mg/kg; format: functional; conditions: route oral
[12] = test system: Mus musculus; assay: In vivo average survival days of mice infected by Trypanosoma brucei rhodesiense was determined for a period of 60 days at p.o. dose of 50 mg/kg; format: functional; conditions: route oral
[13] = test system: Mus musculus; assay: Number of mice (out of 4) cured from Trypanosoma brucei rhodesiense infection which are parasite free for 60 days was determined at p.o. dose of 50 mg/kg; format: functional; conditions: route oral
[14] = test system: Mus musculus; assay: Number of mice (out of 4) cured from Trypanosoma brucei rhodesiense infection which are parasite free for 60 days was determined at p.o. dose of 100 mg/kg; format: functional; conditions: route oral
[15] = test system: Mus musculus; assay: In vivo average survival days of mice infected by Trypanosoma brucei rhodesiense was determined for a period of 60 days at p.o. dose of 100 mg/kg; format: functional; conditions: route oral

| SMILES | IC50 [1] [nM] | ΔTm [3] | IC50 [5] [nM] | Survival [6] [days] | No. of cures [7] | other results |
| --- | --- | --- | --- | --- | --- | --- |
| N=C(N)c1ccc(-c2ccc(-c3cn4c(n3)CCC(C(=N)N)C4)cc2)cc1 (stereo not drawn) | 14 | 21.3 | 116 |  |  | No. of cures [2]: 3; Survival [4]: >51.5 days |
| N=C(N)c1ccc(-c2cccc(-c3cn4cc(C(=N)N)ccc4n3)c2)cc1 | 107 | > 27 | 22 | >60 | 4 |  |
| N=C(N)c1ccc(-c2ccc(-c3cn4c(n3)CCC(C(=N)N)C4)o2)cc1 (stereo not drawn) | 1200 | 15.6 | 52 | >60 | 4 | Survival [8]: >51 days; No. of cures [9]: 2 |
| N=C(N)c1ccc(-c2ccc(-c3ccc(C(=N)N)cc3)o2)cc1 [FURAMIDINE] |  |  |  |  | 0 |  |
| Cc1cc(C(=N)N)cn2cc(-c3cccc(-c4ccc(C(=N)N)cc4)c3)nc12 | 86 | > 27 | 49 | >50 | 3 |  |
| N=C(N)c1ccc(-c2ccc(-c3cn4cc(C(=N)N)ccc4n3)cc2)cc1 | 43 | 24.2 | 1 | >60 | 4 |  |
| N=C(NO)c1ccc(-c2ccc(-c3cn4cc(/C(N)=N/O)ccc4n3)cc2)cc1 | 521 |  |  |  |  | Survival [10]: 28 days; No. of cures [11]: 0 |
| CONC(=N)c1ccc(-c2ccc(-c3cn4cc(C(=N)NOC)ccc4n3)cc2)cc1 | 395 | 0.3 | 5300 |  |  | Survival [10]: 20 days; No. of cures [11]: 0 |
| N=C(NO)c1ccc(-c2ccc(-c3cn4cc(/C(N)=N/O)ccc4n3)o2)cc1 | 1600 |  | 2200 |  |  | Survival [12]: >19.5 days; No. of cures [13]: 1 |
| CONC(=N)c1ccc(-c2ccc(-c3ccc(C(=N)NOC)cc3)o2)cc1 [PAFURAMIDINE] | 15.5 | 25 | 4.5 |  |  | No. of cures [14]: 4; Survival [15]: >60 days |
| N=C(N)c1ccc(-c2cccc(-c3cn4c(n3)CCC(C(=N)N)C4)c2)cc1 (stereo not drawn) | 86 | 19.1 | 226 |  |  |  |
| Cc1cc(C(=N)N)cn2cc(-c3ccc(-c4ccc(C(=N)N)cc4)o3)nc12 | 88 | > 27 | 6 | >60 | 4 |  |
| N=C(N)c1ccc(-c2ccc(-c3cn4cc(C(=N)N)ccc4n3)o2)cc1 | 14 | 26.2 | 63 | >60 | 4 |  |
| N=C(N)c1ccc(OCCCCCOc2ccc(C(=N)N)cc2)cc1 [PENTAMIDINE] |  |  |  |  | 0 |  |
| CONC(=N)c1ccc(-c2ccc(-c3cn4cc(C(=N)NOC)ccc4n3)o2)cc1 | 2800 |  | 3000 |  |  | No. of cures [14]: 2; Survival [15]: >39.5 days |

From ChEMBL document CHEMBL1148357, “Novel dicationic imidazo[1,2-a]pyridines and 5,6,7,8-tetrahydro-imidazo[1,2-a]pyridines as antiprotozoal agents” (J Med Chem, 2004)
